Data: a melting point compilation (Tetko et al.; mined from patent text by program, amines drawn as free bases though some values may be those of a salt)

**Q.** Which melting point does the source give for `CCCC(O)c1cccc(NC(=O)OCc2ccccc2)c1` (stereo not given) here?
**A.** Its melting point is 103 to 106 °C.

**Q.** Which melting point does the source give for `CCCCCCCCCCOc1ccc(C(=O)c2cccc(C(=O)O)c2)cc1Cc1nnn[nH]1` here?
**A.** The melting point was 147 to 150 °C.

**Q.** With `CS(=O)(=O)c1ccc(-c2cc(C(F)F)nn2-c2ccc(F)cc2)cc1F` as the compound, how does the melting point read?
**A.** Its melting point is 201 to 202 °C.

**Q.** With `O=C1Nc2ccccc2OCC1(Cl)Cl` as the compound, how does the melting point read?
**A.** The melting point was 170 to 174 °C.

**Q.** Which melting point does the source give for `NCC1CCn2c(cc3ccccc32)C1` (stereo not given) here?
**A.** Its melting point is 85 to 90 °C.

**Q.** For `O=C(c1ccccc1)c1[nH]c2cc(Cl)ccc2c1CC(=O)N1CCOCC1`, which melting point is on record?
**A.** Its melting point is 188 to 190 °C.

**Q.** For `Cc1ccccc1Nc1nc(N(C)c2ccccc2)c2cccc(O)c2n1`, which melting point is on record?
**A.** Its melting point is 174 to 175 °C.

**Q.** Which melting point does the source give for `Nc1c(F)c(N2C[C@@H](N)[C@@H](n3ccnn3)C2)c(F)c2c1c(=O)c(C(=O)O)cn2-c1ccc(F)cc1F` (relative stereo) here?
**A.** The melting point was 279 to 281 °C.

**Q.** With `O=[N+]([O-])c1ccc(C(O)c2ncco2)c(Cl)c1` (stereo not given) as the compound, how does the melting point read?
**A.** The melting point was 158 to 160 °C.

**Q.** Which melting point does the source give for `CCN(CC)C(=O)NC1CC2c3cccc4[nH]c(C(=O)OCc5ccccc5)c(c34)CC2N(C)C1` (stereo not given) here?
**A.** Its melting point is 226 to 229 °C.

**Q.** Which melting point does the source give for `COC(=O)c1ccc(-c2nc(-c3ccccc3)co2)cc1` here?
**A.** The melting point was 175 to 176 °C.

**Q.** Which melting point does the source give for `CC(=O)NC(C)(C)CNc1c(C)c(C)n2nnnc2c1[N+](=O)[O-]` here?
**A.** The melting point was 200 to 202 °C.

**Q.** Which melting point does the source give for `C=CCn1c(NCCCOc2ccccc2)nc(N2CCc3ccccc3CC2)c(C#N)c1=O` here?
**A.** The melting point was 157 to 159 °C.

**Q.** For `O=C1Nc2ccc(Cl)cc2C(C#CC2CC2)(C(F)(F)F)CN1C1CC1` (stereo not given), which melting point is on record?
**A.** Its melting point is 195 to 196 °C.

**Q.** Which melting point does the source give for `CCOC(=O)N1C(=O)OC(c2c(Cl)cccc2OC)C1=O` (stereo not given) here?
**A.** Its melting point is 196 to 200 °C.

**Q.** With `CCOC(=O)CON(C)C(=S)Nc1ccc2c(c1)CCC2` as the compound, how does the melting point read?
**A.** The melting point was 69 to 71 °C.

**Q.** With `COc1ccc(NC(=O)C#Cc2ccc(CN3CCCCC3)cc2)cc1` as the compound, how does the melting point read?
**A.** Its melting point is 170 °C.

**Q.** For `CC(=O)NCCCCCCOc1ccccc1C(=O)Nc1ccc(C(=O)N2CCCCc3ccccc32)cc1`, which melting point is on record?
**A.** Its melting point is 171 to 172 °C.

**Q.** For `CC(C)Nc1cccnc1N1CCN(C(=O)c2ccc(C(=O)N3CCN(CCO)CC3)cc2)CC1`, which melting point is on record?
**A.** The melting point was 148 to 149 °C.

**Q.** For `CC(Cl)(Cl)C1(O)NC(=O)C(=O)N1`, which melting point is on record?
**A.** Its melting point is 220 °C.

**Q.** Which melting point does the source give for `NC(=O)C1CCCCc2cc3c(nc21)CCCCC3` (stereo not given) here?
**A.** Its melting point is 179 °C.

**Q.** Which melting point does the source give for `CCOC(=O)C1=Cc2cc3ccccc3n2CC1` here?
**A.** Its melting point is 77 to 79 °C.

**Q.** With `CCOc1cc2ncc(C#N)c(NCc3cccc(Br)c3)c2cc1OCC` as the compound, how does the melting point read?
**A.** The melting point was 156 to 159 °C.

**Q.** For `CSc1ccc(C(C)Nc2nc(N)nc(C(F)(F)F)n2)cc1` (stereo not given), which melting point is on record?
**A.** Its melting point is 111 °C.

**Q.** With `CN1CCN(CCO)Cc2ccc(Nc3ncc(Cl)c(N[C@@H]4CCCC[C@H]4NS(C)(=O)=O)n3)cc21` as the compound, how does the melting point read?
**A.** Its melting point is 181 to 190 °C.

**Q.** For `CSc1nsc(-c2ccccc2)n1`, which melting point is on record?
**A.** Its melting point is 57.1 °C.

**Q.** Which melting point does the source give for `CSc1ccc(C(=O)CBr)cc1F` here?
**A.** Its melting point is 70 to 71 °C.

**Q.** Which melting point does the source give for `OC(c1ccc(Cl)cc1)c1cc2ccncc2[nH]1` (stereo not given) here?
**A.** The melting point was 176 to 180 °C.

**Q.** For `O=[N+]([O-])c1cc(C(F)(F)C(F)(F)C(F)(F)/C=C/C(F)(F)C(F)(F)C(F)(F)c2ccc(O)c([N+](=O)[O-])c2)ccc1O`, which melting point is on record?
**A.** Its melting point is 122 to 123 °C.

**Q.** With `CCN(C(=O)c1nn(-c2ccc(Cl)cc2Cl)c(-c2ccc(Cl)cc2)c1C)N1CC=CCC1` as the compound, how does the melting point read?
**A.** Its melting point is 109 °C.

**Q.** Which melting point does the source give for `CCCc1cccnc1N(C)C1CCN(C(=O)c2ccc[nH]2)CC1` here?
**A.** Its melting point is 88 to 90 °C.

**Q.** For `Cn1cc(C(=O)O)c(=O)c2cc3cc(F)c(N4CCNC(c5cccc(F)c5)C4)cc3nc21` (racemic), which melting point is on record?
**A.** The melting point was 254 °C.

**Q.** Which melting point does the source give for `ONC=Nc1ccc(N2CCSCC2)c(Cl)c1` here?
**A.** Its melting point is 137 to 138 °C.

**Q.** For `O=C(O)CCCCOc1ccc2nc3[nH]c(=O)[nH]c3cc2c1`, which melting point is on record?
**A.** Its melting point is 317 to 318 °C.

**Q.** For `CCOc1ccc(OCc2ccc(OCc3nc(-c4ccccc4)oc3C)cc2)cc1CCC(=O)O`, which melting point is on record?
**A.** Its melting point is 129 to 130 °C.

**Q.** With `CCOC(=O)CCc1cc(O)nn1C1CCCCC1` as the compound, how does the melting point read?
**A.** The melting point was 173 to 174 °C.

**Q.** Which melting point does the source give for `O=C(O)COc1cscc1Cl` here?
**A.** Its melting point is 123 °C.

**Q.** With `COc1cc(CC(=O)c2c(O)c3cccnc3n(-c3ccccc3)c2=O)cc(OC)c1` as the compound, how does the melting point read?
**A.** Its melting point is 170 to 171 °C.

**Q.** With `CCCCNC(=O)C(C)(O[Si](C)(C)C(C)(C)C)c1ccc([N+](=O)[O-])cc1` (stereo not given) as the compound, how does the melting point read?
**A.** The melting point was 49 to 50 °C.

**Q.** For `CCCN1CCNC1=C[N+](=O)[O-]`, which melting point is on record?
**A.** Its melting point is 147 to 148 °C.

**Q.** Which melting point does the source give for `CNC(=S)NS(=O)(=O)c1cc(CCNC(=O)/C=C/c2cccs2)ccc1OCc1ccccc1` here?
**A.** The melting point was 94 °C.

**Q.** With `O=C1c2ccccc2C(c2ccc(O)cc2)(c2ccc(O)cc2)c2ccccc21` as the compound, how does the melting point read?
**A.** Its melting point is 320 to 322 °C.

**Q.** With `COc1ccccc1CC(=NCc1cccs1)N1C[C@@H]2C(=O)CCC(c3ccccc3)(c3ccccc3)[C@@H]2C1` as the compound, how does the melting point read?
**A.** The melting point was 88 °C.

**Q.** For `COC(=O)N1CC1C(N)=O` (stereo not given), which melting point is on record?
**A.** The melting point was 117 to 120 °C.

**Q.** For `O=C(CNN1C(=O)c2ccccc2S1(=O)=O)N[C@@H](Cc1ccccc1)C(=O)O`, which melting point is on record?
**A.** Its melting point is 201 to 204 °C.

**Q.** For `Cc1cc(-c2cccc(C(F)(F)F)c2)c2nc(OCC(F)(F)F)cnc2c1`, which melting point is on record?
**A.** The melting point was 46 to 48 °C.

**Q.** With `COc1cc2nc(N)nc(-c3ccc(Cl)cc3)c2cc1OC` as the compound, how does the melting point read?
**A.** Its melting point is 248 to 250 °C.

**Q.** With `COc1ccc(/C=C/c2ccc3cc(C(=O)O)ccc3n2)cc1` as the compound, how does the melting point read?
**A.** Its melting point is 274 to 277 °C.

**Q.** With `COc1cc(CN/C=C2\C(=O)NC(=O)c3ccc(-c4ccc(Cl)cc4)cc32)cc(O)c1OC` as the compound, how does the melting point read?
**A.** Its melting point is 240 to 241 °C.

**Q.** Which melting point does the source give for `O=C1Cc2cc(C(=O)[C@H]3CC[C@H]3C(=O)O)ccc2N1` (relative stereo) here?
**A.** The melting point was 211 to 212 °C.
